Experimental data reported in patent US8247533B2, “Beta helical peptide structures stable in aqueous and non-aqueous media” (The United States of America, as represented by the …, priority 2007, dated 2012).
≈ marks a conversion by molar mass, not a printed value. Peptide text beside a SMILES is read from it.

Legend:
[1] = Solubility in organic solvents (purification work); assay type: physicochemical
Procedure: However, dissolution of the crude peptide in HFIP at a concentration of about 80 mg mL^−1, followed by twofold dilution with HFA.3H2O, furnished a solution that was suitable for use in RP-HPLC.
The next attempt to repurify fraction a of the RP-HPLC purified material using gravity-driven GPC on Sephadex LH-20. These efforts were complicated by the lack of a suitable pure solvent that would satisfy the following criteria: (1) the solvent must be able to dissolve the partially purified peptide, and (2) the solvent must be sufficiently polar to prevent irreversible adsorption of the peptide to the LH-20 stationary phase. One choice was CHCl3, in which the peptide is soluble to about. 20 mM; CHCl3, however, is a nonpolar solvent. Moreover, CHCl3 is denser than LH-20 and therefore inconvenient for GPC using gravity-driven flow. However, the solvent mixture CHCl3/MeOH (65:35) satisfies both of the criteria stated above; in addition, this mixture is less dense than LH-20. A single pass of fraction a through a 2.5×55 cm column of LH-20 in CHCl3/MeOH gave material that was ≧95% pure as estimated by 1D ^1H NMR (FIG. 9c). Furthermore, even fraction b of the RP-HPLC-purified material, which contained about 30% contaminant (FIG. 9b), could be purified in this manner. […]

physchem = conditions: aqueous medium
Description: (§1) The water solubility of these peptides/peptidometrics is defined by the correct choice of sidechain functionalities.

[2] = Circular dichroism (CD) thermal denaturation study; assay type: physicochemical
Description: as §1

Row | SMILES | solubility ([1]; CHCl3, partially purified peptide) [mM] | solubility in solvents typically used for RP-HPLC ([1]; crude peptide, MeOH, EtOH, i-PrOH, and CH3CN) | solubility (physchem) [mM] | change of beta-hairpin structure (CD) with temperature ([2]; aqueous state, 100 mM phosphate buffered saline buffer, about 5° C. to about 95° C.) | temperature up to which helical structure resists thermal denaturation (CD) ([2]; in methanol and trifluoroethanol)
1 | CC(C)[C@@H]1NC(=O)CNC(=O)[C@H]2CCCN2C(=O)[C@H](C(C)C)NC(=O)[C@@H](C(C)C)NC(=O)[C@H](C(C)C)NC(=O)[C@@H](C(C)C)NC(=O)[C@H](C(C)C)NC(=O)[C@@H](C(C)C)NC(=O)[C@H](C(C)C)NC(=O)[C@@H](C(C)C)NC(=O)[C@H](C(C)C)NC(=O)CNC(=O)[C@H]2CCCN2C(=O)[C@H](C(C)C)NC(=O)[C@@H](C(C)C)NC(=O)[C@H](C(C)C)NC(=O)[C@@H](C(C)C)NC(=O)[C@H](C(C)C)NC(=O)[C@@H](C(C)C)NC(=O)[C@H](C(C)C)NC(=O)[C@@H](C(C)C)NC1=O [Peptide 3, cyclo{[(L-Val-D-Val)4-(L-Val-D-Pro-Gly)]2-}] (HELM PEPTIDE1{V.[dP].G.V.[dV].V.[dV].V.[dV].V.[dV].V.[dP].G.V.[dV].V.[dV].V.[dV].V.[dV]}$PEPTIDE1,PEPTIDE1,1:R1-22:R2$$$V2.0) | ~20 (≈ 41.9 mg/mL) | insoluble | – | – | –
2 | CC(C)C[C@H]1NC(=O)CNC(=O)[C@@H]2CCCN2C(=O)[C@@H](C)NC(=O)[C@H]([C@@H](C)O)NC(=O)[C@@H](CC(C)C)NC(=O)[C@H]([C@@H](C)O)NC(=O)[C@@H](C(C)C)NC(=O)[C@H](CCCCN)NC(=O)[C@@H](CC(C)C)NC(=O)[C@H](CCC(=O)O)NC(=O)[C@@H](C)NC(=O)CNC(=O)[C@@H]2CCCN2C(=O)[C@@H](C(C)C)NC(=O)[C@H]([C@@H](C)O)NC(=O)[C@@H](C)NC(=O)[C@H]([C@@H](C)O)NC(=O)[C@@H](CC(C)C)NC(=O)[C@H](CCCNC(=N)N)NC(=O)[C@@H](C(C)C)NC(=O)[C@H](CCC(=O)O)NC1=O [Peptide 1] (HELM PEPTIDE1{[dL].E.[dV].R.[dL].T.[dA].T.[dV].P.G.[dA].E.[dL].K.[dV].T.[dL].T.[dA].P.G}$PEPTIDE1,PEPTIDE1,1:R1-22:R2$$$V2.0) | – | – | > 10 | does not change | up to 85 °C
